The values that follow come from article PMC5059743, “Crystal structures of the human elongation factor eEFSec suggest a non-canonical mechanism for selenocysteine incorporation” (Nature Communications, 2016).

Changes are numbered by the printed parent chain.

Holding throughout (experiment): isothermal titration calorimetry
Common to all, as to type: binding
A general note: In ITC the heat of successive injections is recorded.

The target of experiment [1] is T1, human eEFSec (Homo sapiens, UniProt P57772).
T1 construct: intact full-length, N-terminal 6xHis tag (pET15b, no tag removal described), E. coli Lemo21(DE3); monomer in solution; SeMet form also made for phasing
T1 sequence (P57772 1-596): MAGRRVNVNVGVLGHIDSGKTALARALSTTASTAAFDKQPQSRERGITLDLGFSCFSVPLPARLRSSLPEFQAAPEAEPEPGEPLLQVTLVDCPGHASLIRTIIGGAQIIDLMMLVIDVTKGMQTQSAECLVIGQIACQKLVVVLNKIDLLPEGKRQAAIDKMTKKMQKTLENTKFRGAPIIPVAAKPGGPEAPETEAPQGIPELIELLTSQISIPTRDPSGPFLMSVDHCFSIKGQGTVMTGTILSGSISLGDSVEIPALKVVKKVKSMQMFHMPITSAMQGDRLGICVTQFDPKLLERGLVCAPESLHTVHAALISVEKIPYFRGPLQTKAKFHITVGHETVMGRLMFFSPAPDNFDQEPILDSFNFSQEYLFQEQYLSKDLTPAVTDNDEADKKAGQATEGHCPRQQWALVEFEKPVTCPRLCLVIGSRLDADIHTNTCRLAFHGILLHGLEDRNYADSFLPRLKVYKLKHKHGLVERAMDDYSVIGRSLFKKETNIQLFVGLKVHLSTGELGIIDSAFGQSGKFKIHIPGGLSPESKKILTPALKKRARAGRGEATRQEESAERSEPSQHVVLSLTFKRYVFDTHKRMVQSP

In experiment [2] the target is T2, human eEFSec (Homo sapiens, UniProt P57772, T48A).
T2 construct: intact full-length, N-terminal 6xHis tag (pET15b, no tag removal described), E. coli Lemo21(DE3); monomer in solution; SeMet form also made for phasing
T2 sequence (P57772 1-596 T48A): T1 sequence (P57772 1-596) with T48A

The target in experiment [3] is T3, human eEFSec (Homo sapiens, UniProt P57772, D92A).
T3 construct: intact full-length, N-terminal 6xHis tag (pET15b, no tag removal described), E. coli Lemo21(DE3); monomer in solution; SeMet form also made for phasing
T3 sequence (P57772 1-596 D92A): T1 sequence (P57772 1-596) with D92A

Experiment [4] deals with T4, human eEFSec (Homo sapiens, UniProt P57772, H96A).
T4 construct: intact full-length, N-terminal 6xHis tag (pET15b, no tag removal described), E. coli Lemo21(DE3); monomer in solution; SeMet form also made for phasing
T4 sequence (P57772 1-596 H96A): T1 sequence (P57772 1-596) with H96A

The Kd is the equilibrium constant for the complex coming apart. A lower Kd goes with higher affinity. `Nc1nc(O)c2ncn([C@@H]3O[C@H](COP(=O)(O)OP(=O)(O)C[P+]([O-])(O)O)[C@@H](O)[C@H]3O)c2n1` [GDPCP] displayed a Kd at human eEFSec [1] of 1.85 ± 0.24 µM.

With `Nc1nc2c(ncn2[C@@H]2O[C@H](COP(=O)(O)OP(=O)(O)NP(=O)(O)O)[C@@H](O)[C@H]2O)c(=O)[nH]1` [GDPNP], at human eEFSec [1], the Kd was 1.2 ± 0.47 µM.

On to `Nc1nc2c(ncn2[C@@H]2O[C@H](COP(=O)(O)OP(=O)(O)O)[C@@H](O)[C@H]2O)c(=O)[nH]1` [GDP], for which the Kd at human eEFSec [2] amounted to 0.24 ± 0.05 µM; on human eEFSec [3] it was 1.5 ± 0.13 µM; on human eEFSec [1], 0.19 ± 0.05 µM; at human eEFSec [4], 1.3 ± 0.24 µM.

For the compound `Nc1nc2c(ncn2[C@@H]2O[C@H](COP(=O)(O)OP(=O)(O)OP(=O)(O)O)[C@@H](O)[C@H]2O)c(=O)[nH]1` [GTP], the dissociation constant Kd at human eEFSec [2] came to 1.82 ± 0.11 µM; at human eEFSec [3] it was 8.47 ± 0.49 µM; on human eEFSec [1], 1.21 ± 0.26 µM; at human eEFSec [4], 1.6 ± 0.75 µM.

`Nc1nc2c(ncn2[C@@H]2O[C@H](COP(=O)(O)OP(=O)(O)OP(O)(O)=S)[C@@H](O)[C@H]2O)c(=O)[nH]1` [GTPγS]: binding at human eEFSec [1] was put at a Kd of 0.48 ± 0.06 µM.
